# From patent US4241069A, “3-Methylene flavanones and 3-methylene chromanones” (Miles Laboratories, Inc., priority 1979, dated 1980)
# Tests used:
# [1] = test system: A. fumigatus NRRL 163; test: MIC, agar incorporation method; type: cell-based; details: Aspergillus fumigatus, NRRL163, NRRL 163; 32° C., 48-72 hours; read-out: Minimal Inhibitory Concentration
# Experimental: (§1) The compounds of the present invention were tested for their ability to inhibit the growth of microorganisms by in vitro tests. Generally the in vitro tests involve growing representative microorganisms under conditions favorable to such growth and measuring the effectiveness of one or more compounds in inhibiting or destroying the growth of the microorganisms. The microorganisms used include representative bacteria, fungi and yeasts.
# (§2) A representative selection of the test microorganisms were cultured in a nutrient broth, such as, for example, Eugon, commercially available from Difco Laboratories, Detroit, Michigan. Bacteria and Candida species were cultured for 24 hours at 32°-37° C. and fungi were cultured for approximately one week at 32° C. Inocula were prepared by suspending the growth or spores from a slant culture in sufficient sterile normal (0.9 percent) saline or Eugon broth, to yield cell or spore concentrations of 1,000,000 cells per milliliter. Anaerobic bacteria were cultured for 48-72 hours at 32°-37° C. in a thioglycollate containing medium, for example, Fluid Thioglycollate medium or NIH thioglycollate broth, commercially available from Difco Laboratories.
# (§3) The compounds of the present invention were tested for activity against bacteria, yeasts and fungi by the agar incorporation method described below. MA 1347, 3-(dimethylaminomethyl)flavanone (disclosed in U.S. Pat. No. 3,753,985) was used as a comparative standard along with controls for each solvent system used.
# (§4) A series of agar plates containing two-fold dilutions of each compound to be tested, ranging in concentration from 100 to 3.1 mcg/ml of agar medium was prepared. Aliquots of each concentration (100, 50, 25, 12.5, 6.2, and 3.1) prepared in N,N-dimethylformamide or 50 percent aqueous DMF were added to liquid Eugon agar at 48° C. (one part test solution to 100 parts agar). In some cases, tests with further dilutions to 0.125 mcg/ml were conducted. The agar medium, containing the 3-methylene flavanone or chromanone compound to be tested, was then dispensed into petri dishes and allowed to solidify. The solidified plates were kept overnight at room temperatures to dry the surface of the agar.
# (§5) The agar plates were then inoculated with a drop of the standardized cell or spore suspension. Inoculated plates were incubated at 32° C. The inhibition end-point or minimum inhibitory concentration (MIC) shown in Table D represent the lowest concentration of test compound which inhibited the growth of the microorganism. Visual determination of growth inhibition was used. Bacteria and yeast end-points were determined after 24 hours incubation; molds, dermatophytes and anaerobes after 48-72 hours incubation. MIC values shown as ranges represent the extremes found in repeat assays. Virtually all such values were written plus or minus one dilution, the accepted variation of a two-fold dilution assay.
# [2] = test system: Aspergillus niger ATCC 16404; test: MIC, agar incorporation method; type: cell-based; details: ATCC16404, 32° C., 48-72 hours, read-out: Minimal Inhibitory Concentration
# Experimental: as §1, §2, §3, §4, §5
# [3] = test system: C. albicans NRRL Y-477; test: MIC, agar incorporation method; type: cell-based; details: Candida albicans, NRRLY477, 32° C., 24 hours, read-out: Minimal Inhibitory Concentration
# Experimental: as §1, §2, §3, §4, §5
# [4] = test system: C. guillermondii VM 42; test: MIC, agar incorporation method; type: cell-based; details: 32° C., 24 hours; read-out: Minimal Inhibitory Concentration
# Experimental: as §1, §2, §3, §4, §5
# [5] = test system: C. krusei VM 29B; test: MIC, agar incorporation method; type: cell-based; details: Pichia kudriavzevii, VM29B; 32° C., 24 hours; read-out: Minimal Inhibitory Concentration
# Experimental: as §1, §2, §3, §4, §5
# [6] = test system: C. tropicalis NRRL Y1410; test: MIC, agar incorporation method; type: cell-based; details: Candida tropicalis, NRRLY1410; 32° C., 24 hours; read-out: Minimal Inhibitory Concentration
# Experimental: as §1, §2, §3, §4, §5
# [7] = test system: Candida albicans ATCC 10231; test: MIC, agar incorporation method; type: cell-based; details: ATCC10231, C. albicans ATCC 10231, 32° C., 24 hours, read-out: Minimal Inhibitory Concentration
# Experimental: as §1, §2, §3, §4, §5
# [8] = test system: Escherichia coli ATCC 8739; test: MIC, agar incorporation method; type: cell-based; details: ATCC8739, 32° C., 24 hours, read-out: Minimal Inhibitory Concentration
# Experimental: as §1, §2, §3, §4, §5
# [9] = test system: Microsporum gypseum ATCC 14683; test: MIC, agar incorporation method; type: cell-based; details: Nannizzia gypsea, ATCC14683, 32° C., 48-72 hours; read-out: Minimal Inhibitory Concentration
# Experimental: as §1, §2, §3, §4, §5
# [10] = test system: Pseudomonas aeruginosa ATCC 14502; test: MIC, agar incorporation method; type: cell-based; details: ATCC14502, 32° C., 24 hours, read-out: Minimal Inhibitory Concentration
# Experimental: as §1, §2, §3, §4, §5
# [11] = test system: Staphylococcus aureus ATCC 6538; test: MIC, agar incorporation method; type: cell-based; details: Staphylococcus aureus, ATCC6538; S. aureus ATCC 6538; 32° C., 24 hours; read-out: Minimal Inhibitory Concentration
# Experimental: as §1, §2, §3, §4, §5
# [12] = test system: Streptococcus faecalis ATCC 10541; test: MIC, agar incorporation method; type: cell-based; details: Enterococcus faecalis, ATCC10541; 32° C., 24 hours; read-out: Minimal Inhibitory Concentration
# Experimental: as §1, §2, §3, §4, §5
# [13] = test system: T. mentagrophytes CDC; test: MIC, agar incorporation method; type: cell-based; details: Trichophyton mentagrophytes, 32° C., 48-72 hours, read-out: Minimal Inhibitory Concentration
# Experimental: as §1, §2, §3, §4, §5
# [14] = test system: T. mentagrophytes TM-2; test: MIC, agar incorporation method; type: cell-based; details: Trichophyton mentagrophytes, TM2, 32° C., 48-72 hours, read-out: Minimal Inhibitory Concentration
# Experimental: as §1, §2, §3, §4, §5
# [15] = test system: T. rubrum ATCC 10218; test: MIC, agar incorporation method; type: cell-based; details: Trichophyton rubrum, ATCC10218; 32° C., 48-72 hours; read-out: Minimal Inhibitory Concentration
# Experimental: as §1, §2, §3, §4, §5
# [16] = test system: Trichophyton mentagrophytes ATCC 4807; test: MIC, agar incorporation method; type: cell-based; details: ATCC4807, 32° C., 48-72 hours, read-out: Minimal Inhibitory Concentration
# Experimental: as §1, §2, §3, §4, §5
# [17] = test system: S. aureus NRRL B2747; test: MIC, agar incorporation method; type: cell-based, Staphylococcus aureus; details: Staphylococcus aureus, NRRLB2747, 32° C., 24 hours, read-out: Minimal Inhibitory Concentration
# Experimental: as §1, §2, §3, §4, §5
# [18] = test system: Propionobacterium acnes ATCC 6919; test: MIC, agar incorporation method, anaerobic; type: cell-based; details: 48 hours at 35° C., GasPak Anaerobic Jar, read-out: Minimal Inhibitory Concentration
# Experimental: as §1, §2, §3, §4, §5
# *Anaerobic: 48 hours incubation at 35° C. GasPak Anaerobic Jar
# [19] = test system: A. fumigatus NRRL 165; test: MIC, agar incorporation method; type: cell-based; details: Aspergillus fumigatus, NRRL165, 32° C., 48-72 hours, read-out: Minimal Inhibitory Concentration
# Experimental: as §1, §2, §3, §4, §5
MIC [1] [µg/mL],MIC [2] [µg/mL],MIC [3] [µg/mL],MIC [4] [µg/mL],MIC [5] [µg/mL],MIC [6] [µg/mL],MIC [7] [µg/mL],MIC [8] [µg/mL],MIC [9] [µg/mL],MIC [10] [µg/mL],MIC [11] [µg/mL],MIC [12] [µg/mL],MIC [13] [µg/mL],MIC [14] [µg/mL],MIC [15] [µg/mL],MIC [16] [µg/mL],MIC [17] [µg/mL],MIC [18] [µg/mL],MIC [19] [µg/mL],SMILES
50,100,100,100,50,> 100,100,> 100,12.5,> 100,12.5,> 100,12.5,12.5,25,12.5,12.5,> 100,,"C=C1C(=O)c2ccccc2OC1c1ccc(OC)cc1 (stereo not shown) [Ex. 8, 4'-methoxy-3-methylene flavanone]"
,> 100,100,> 100,50,> 100,> 100,> 100,6.2,> 100,≤ 3.1,50,12.5,12.5,6.2,6.2,6.2,,> 100,"C=C1C(=O)c2ccccc2OC1c1cccc2ccccc12 (stereo not shown) [Ex. 23, 3-methylene-2-(1-naphthyl) chromanone]"

# More lines, now with the values behind:
SMILES,MIC [1] [µg/mL],MIC [2] [µg/mL],MIC [3] [µg/mL],MIC [4] [µg/mL],MIC [5] [µg/mL],MIC [6] [µg/mL],MIC [7] [µg/mL],MIC [8] [µg/mL],MIC [9] [µg/mL],MIC [10] [µg/mL],MIC [11] [µg/mL],MIC [12] [µg/mL],MIC [13] [µg/mL],MIC [14] [µg/mL],MIC [15] [µg/mL],MIC [16] [µg/mL],MIC [17] [µg/mL],MIC [18] [µg/mL],MIC [19] [µg/mL]
"C=C1C(=O)c2ccc(OC)cc2OC1c1ccc(Cl)cc1 (stereo not shown) [Ex. 18, 4'-chloro-7-methoxy-3-methylene flavanone]",12.5,25,50,> 100,25,> 100,50,> 100,6.2,> 100,≤ 3.1,50,12.5,12.5,12.5,12.5,6.2,≤ 100,
"C=C1C(=O)c2ccccc2OC1c1ccc(C(C)(C)C)cc1 (stereo not shown) [Ex. 14, 4'-t-butyl-3-methylene flavanone]",,100,,> 100,50,> 100,,> 100,12.5 to 25,> 100,≤ 3.1,25 to 50,25,25,12.5 to 25,25,3.1 to 6.2,≤ 100,
"C=C1C(=O)c2cc(C)ccc2OC1c1ccccc1 (stereo not shown) [compound 19, 6-methyl-3-methylene flavanone]",25,25,25,25,25,25,25,> 100,6.2,> 100,6.2,50,6.2,6.2,6.2,6.2,6.2,≤ 100,
"C=C1C(=O)c2ccccc2OC1c1ccc(N(C)C)cc1 (stereo not shown) [Ex. 11, 4'-dimethylamino-3-methylene flavanone]",,> 100,> 100,> 100,100,> 100,> 100,> 100,25,> 100,50,> 100,25,25,12.5,25,50,,> 100
